Converted amounts (≈) assume the structure as drawn.
Legend:
Ehrlich carcinoma = assay: Activity against Ehrlich carcinoma (general statement); format: in vivo; settings: general statement in words
Description: (a) Experiments for therapeutic treatment of Ehrlich carcinoma-bearing mice were conducted by intraperitoneal injection of the antibiotic MI43-37F11 substance. Thus, a cell suspension of Ehrlich ascites carcinoma cells was subcutaneously inoculated at the abdominal region of ICR mice (female, 6-week old, 4 mice in each treated group) so that the number of the carcinoma cells as subcutaneously transplanted was 2×10^6 cells per mouse. After the transplantation of the carcinoma cells, the antibiotic MI43-37F11 substance was administered by intraperitoneal injection to the mice having the transplanted and firmly grown carcinoma cells, according to the following schedule of administration. […]
On the 15th day after the transplantation of the carcinoma cells, the mass of the tumor (carcinoma) was surgically removed out of each mouse and weighed. The rate of the reduction in the weight of the tumor (carcinoma) obtained from the group of mice treated with MI43-37F11 substance was evaluated in term of the rate (%) of inhibition, with such an assumption that the weight of the tumor obtained from the control group of mice was amounting to 100. […]

interleukin-1 = assay: Enhancement of the production of interleukin-1 in vivo (uptake of 3H-TdR by D10.G4.1 cells); set-up: species or system CDF1 mice
Description: (5) Experiments for estimation of the activity of the antibiotic MI43-37F11 substance to enhance the production of interleukin-1 in vivo was conducted by the following procedure. Thus, MI43-37F11 substance was orally administered to CDF1 mice (female, 6-week old) B at a dosage of 25 mg/kg. One day, 3 days, 5 days and […] the administration, peritoneal exudate cells (PEC) and spleen cells were respectively harvested from the mice of the treated group. The peritoneal exudate cells and spleen cells as harvested were independently divided into two classes, namely the class of the adherent cell which was adherent in its nature to the wall of a plastic dish and the class of the non-adherent cell. The whole peritoneal exudate cells (PEC), the adherent cells of PEC and the adherent cells of the spleen cell were separately suspended into aliquots of a culture medium to give a cell concentrations of 1×10^6 cells/well, 2×10^6 cells/well and 2.5×10^6 cells/well, respectively. After the incubation for 24 hours, the supernatants were collected by filtration of the incubated culture media and then assayed for their activity of interleukin-1 (IL-1) according to the method of Jonathan K. et al (see "Lymphokine Research" 3 (4), 175-182, (1984)). Namely, 100 μl of each supernatant obtained as above and Concanavalin A (to a final concentration of 2.5 μg/ml) were added to 100 μl of a cell suspension containing 1 x 10^5 cells/m(of D10.G4.1. cells which will proliferate in the presence of Concanavalin A plus interleukin-1 when the latter compounds are given. The resulting mixture was then incubated for 48 hours and then added with ^3 H-thymidine (^3 H-TdR), followed by further incubation for 16 hours. After this, the rate of uptake of ^3 H-TdR by the D10.G4.1. cells was determined in term of the radio-activity unit of c.p.m. The rate of uptake of ^3 H-TdR in the control group of mice (untreated) was also determined in the same manner as above.

mouse IMC carcinoma = assay: Inhibition of proliferation of mouse IMC carcinoma cells; format: cell-based; settings: 48 h, 37° C, 2 days
Description: A cell suspension containing cells of mouse Leukemia L1210, mouse Leukemia P388, mouse Leukemia EL4, mouse IMC carcinoma or human lung cancer LX-1 cells in a culture medium containing 10% calf serum at a cell density of 1 x 10^5 cells/ml was prepared, and 200 μl-portion of the cell suspension so prepared was placed in a microplate and then added with a solution of MI43-37F11 substance at varying concentrations (dissolved in a mixture of water and dimethylsulfoxide (95:5)). The cell suspension containing the test compound added was subsequently incubated at 37° C for 2 days (but 5 days for the LX-1 cells).
After the incubation, the number of the cells of the L1210 cells, P388 cells, the EL4 cells and the IMC carcinoma cells in the treated groups was counted by means of Coulter-counter. The control group (untreated) of the cell suspension to which the test compound was not added was incubated in the same way as above and then the number of the cells was similarly counted.
Rate (%) of inhibition of the cell proliferation of the treated group against that of the control group (untreated) was evaluated. […]

Compound: COc1cc(O)c2c(=O)oc(CO)cc2c1 [MI43-37F11 substance]
- activity against Ehrlich carcinoma (Ehrlich carcinoma): high activity
- Uptake of 3H-TdR, T/C % (interleukin-1; adherent cell in PEC, 1 day after 25 mg/kg oral): 165.8%
- Uptake of 3H-TdR, c.p.m. ± S.D. (interleukin-1; adherent cell in PEC, 1 day after 25 mg/kg oral, control 10561 ± 1241, **): 17510 ± 810 c.p.m.
- Uptake of 3H-TdR, T/C % (interleukin-1; adherent cell in PEC, 3 days after 25 mg/kg oral): 131.7%
- Uptake of 3H-TdR, c.p.m. ± S.D. (interleukin-1; adherent cell in PEC, 3 days after 25 mg/kg oral, control 10561 ± 1241, **): 13912 ± 1367 c.p.m.
- Uptake of 3H-TdR, T/C % (interleukin-1; adherent cell in PEC, 5 days after 25 mg/kg oral): 253.4%
- Uptake of 3H-TdR, c.p.m. ± S.D. (interleukin-1; adherent cell in PEC, 5 days after 25 mg/kg oral, control 10561 ± 1241, ***): 26759 ± 3601 c.p.m.
- Uptake of 3H-TdR, T/C % (interleukin-1; adherent cell in PEC, 7 days after 25 mg/kg oral): 167.0%
- Uptake of 3H-TdR, c.p.m. ± S.D. (interleukin-1; adherent cell in PEC, 7 days after 25 mg/kg oral, control 10561 ± 1241, *): 17639 ± 2699 c.p.m.
- Uptake of 3H-TdR, T/C % (interleukin-1; adherent cell in spleen cells, 1 day after 25 mg/kg oral): 83.3%
- Uptake of 3H-TdR, c.p.m. ± S.D. (interleukin-1; adherent cell in spleen cells, 1 day after 25 mg/kg oral, control 2091 ± 481): 1741 ± 352 c.p.m.
- Uptake of 3H-TdR, T/C % (interleukin-1; adherent cell in spleen cells, 3 days after 25 mg/kg oral): 232.8%
- Uptake of 3H-TdR, c.p.m. ± S.D. (interleukin-1; adherent cell in spleen cells, 3 days after 25 mg/kg oral, control 2091 ± 481, **): 4868 ± 497 c.p.m.
- Uptake of 3H-TdR, T/C % (interleukin-1; adherent cell in spleen cells, 5 days after 25 mg/kg oral): 102.3%
- Uptake of 3H-TdR, c.p.m. ± S.D. (interleukin-1; adherent cell in spleen cells, 5 days after 25 mg/kg oral, control 2091 ± 481): 2140 ± 121 c.p.m.
- Uptake of 3H-TdR, T/C % (interleukin-1; adherent cell in spleen cells, 7 days after 25 mg/kg oral): 114.1%
- Uptake of 3H-TdR, c.p.m. ± S.D. (interleukin-1; adherent cell in spleen cells, 7 days after 25 mg/kg oral, control 2091 ± 481): 2385 ± 134 c.p.m.
- enhance the in vivo production of interleukin-1 (interleukin-1; summary in words): effective
- Uptake of 3H-TdR, T/C % (interleukin-1; whole PEC, 1 day after 25 mg/kg oral): 61.3%
- Uptake of 3H-TdR, c.p.m. ± S.D. (interleukin-1; whole PEC, 1 day after 25 mg/kg oral, control 7166 ± 752, **): 4393 ± 397 c.p.m.
- Uptake of 3H-TdR, T/C % (interleukin-1; whole PEC, 3 days after 25 mg/kg oral): 83.6%
- Uptake of 3H-TdR, c.p.m. ± S.D. (interleukin-1; whole PEC, 3 days after 25 mg/kg oral, control 7166 ± 752): 5988 ± 602 c.p.m.
- Uptake of 3H-TdR, T/C % (interleukin-1; whole PEC, 5 days after 25 mg/kg oral): 391.7%
- Uptake of 3H-TdR, c.p.m. ± S.D. (interleukin-1; whole PEC, 5 days after 25 mg/kg oral, control 7166 ± 752, ***): 28072 ± 1174 c.p.m.
- Uptake of 3H-TdR, T/C % (interleukin-1; whole PEC, 7 days after 25 mg/kg oral): 54.5%
- IC50 (mouse IMC carcinoma): 72 µg/mL (≈ 324 µM)

From patent US5096924A, “Anticancer antibiotic MI43-37F11 substance” (501 Azidan Hojin Biseibutsu Kagaku Kenkyu Kai, priority 1989, dated 1992)
